Measured values taken from US7799796B2, “Diaminopyrimidines as P2X3 and P2X2/3 modulators” (Roche Palo Alto LLC, priority 2005, dated 2010).

Tests used:
[1] = biological target: T1, human P2X2/3 receptor (Homo sapiens, UniProt P56373+Q9UBL9); experiment: P2X2/3 FLIPR (Fluorometric Imaging Plate Reader) assay; type: cell-based; settings: CHO-K1 cells transfected with human P2X2/3; agonist α,β-meATP 5 μM; read-out: pIC50 for the P2X2/3 receptor (converted)
T1 construct: expressed in transfected cells; host or cells: CHO-K1
T1 sequence (P56373 1-397): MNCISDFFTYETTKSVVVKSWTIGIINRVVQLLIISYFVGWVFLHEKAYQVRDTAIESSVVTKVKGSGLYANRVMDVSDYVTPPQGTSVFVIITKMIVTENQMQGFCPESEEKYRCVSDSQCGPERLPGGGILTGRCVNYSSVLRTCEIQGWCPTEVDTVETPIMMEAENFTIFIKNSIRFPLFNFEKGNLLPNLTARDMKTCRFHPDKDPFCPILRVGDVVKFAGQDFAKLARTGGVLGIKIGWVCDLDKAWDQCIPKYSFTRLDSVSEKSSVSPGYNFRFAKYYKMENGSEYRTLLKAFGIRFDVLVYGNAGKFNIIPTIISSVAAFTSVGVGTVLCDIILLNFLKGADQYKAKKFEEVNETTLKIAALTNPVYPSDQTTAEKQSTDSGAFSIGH
T1 sequence (Q9UBL9 1-471): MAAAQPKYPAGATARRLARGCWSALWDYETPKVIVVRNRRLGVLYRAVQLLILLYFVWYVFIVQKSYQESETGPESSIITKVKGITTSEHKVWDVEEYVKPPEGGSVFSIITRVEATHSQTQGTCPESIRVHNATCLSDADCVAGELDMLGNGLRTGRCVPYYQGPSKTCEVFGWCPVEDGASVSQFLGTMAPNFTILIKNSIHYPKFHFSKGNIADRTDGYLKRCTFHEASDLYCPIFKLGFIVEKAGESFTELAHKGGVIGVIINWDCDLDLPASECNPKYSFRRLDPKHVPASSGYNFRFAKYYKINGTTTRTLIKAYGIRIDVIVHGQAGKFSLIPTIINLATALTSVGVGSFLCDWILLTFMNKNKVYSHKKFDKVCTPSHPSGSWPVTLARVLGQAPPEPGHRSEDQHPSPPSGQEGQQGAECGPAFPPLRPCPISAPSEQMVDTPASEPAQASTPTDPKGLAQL
Protocol: (§1) CHO-K1 cells were transfected with cloned rat P2X3 or human P2X2/3 receptor subunits and passaged in flasks. 18-24 hours before the FLIPR experiment, cells were released from their flasks, centrifuged, and resuspended in nutrient medium at 2.5×10^5 cells/ml. The cells were aliquoted into black-walled 96-well plates at a density of 50,000 cells/well and incubated overnight in 5% CO2 at 37° C. On the day of the experiment, cells were washed in FLIPR buffer (calcium- and magnesium-free Hank's balanced salt solution, 10 mM HEPES, 2 mM CaCl2, 2.5 mM probenecid; FB). Each well received 100 μl FB and 100 μl of the fluorescent dye Fluo-3 AM [2 μM final conc.]. […]
(§2) Test compounds (dissolved in DMSO at 10 mM and serially diluted with FB) or vehicle were added to each well (25 μl of a 4× solution) and allowed to equilibrate for 20 minutes at room temperature. The plates were then placed in the FLIPR and a baseline fluorescence measurement (excitation at 488 nm and emission at 510-570 nm) was obtained for 10 seconds before a 100 μl/well agonist or vehicle addition. […] Fluorescence was measured for an additional 2 minutes at 1 second intervals after agonist addition. A final addition of ionomycin (5 μM, final concentration) was made to each well of the FLIPR test plate to establish cell viability and maximum fluorescence of dye-bound cytosolic calcium. […]

[2] = biological target: T2, rat P2X3 receptor (Rattus norvegicus, UniProt P49654); experiment: P2X3 FLIPR (Fluorometric Imaging Plate Reader) assay; type: cell-based; settings: CHO-K1 cells transfected with rat P2X3; agonist α,β-meATP 1 μM; read-out: pIC50 for the P2X3 receptor (converted)
T2 construct: expressed in transfected cells; host or cells: CHO-K1
T2 sequence (P49654 1-397): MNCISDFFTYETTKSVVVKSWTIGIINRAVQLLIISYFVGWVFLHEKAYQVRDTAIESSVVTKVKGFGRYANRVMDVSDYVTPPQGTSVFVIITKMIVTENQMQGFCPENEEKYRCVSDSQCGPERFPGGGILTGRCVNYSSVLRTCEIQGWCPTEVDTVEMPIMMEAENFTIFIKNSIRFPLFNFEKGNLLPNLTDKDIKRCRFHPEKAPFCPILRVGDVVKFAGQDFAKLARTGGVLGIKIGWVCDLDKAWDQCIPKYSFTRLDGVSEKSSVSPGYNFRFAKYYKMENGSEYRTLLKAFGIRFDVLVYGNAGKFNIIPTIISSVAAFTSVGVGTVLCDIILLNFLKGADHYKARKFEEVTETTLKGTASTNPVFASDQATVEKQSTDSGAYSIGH
Protocol: as §1, §2

`COc1cc(C(C)C)c(Oc2cnc(NC(=O)C(C)C)nc2N)cc1I` [Compound 10, N-[4-Amino-5-(5-iodo-2-isopropyl-4-methoxy-phenoxy)-pyrimidin-2-yl]-isobutyramide] showed an IC50 [1] of about 0.0398 µM and an IC50 [2] of about 0.0158 µM.
